US11241433B2, “Treatment or prevention of autism disorders using menthol, linalool and/or icilin” (Société des Produits Nestlé S.A., priority 2013, dated 2022)

Experiments:
Assay type in all cases: cell-based
[1] = test system: Lateral Amygdala glutamatergic neuron (in a mouse brain slice); assay: whole cell, current clamp recordings, square pulse of 2.5 s at high depolarization; conditions: square pulse of 2.5 s at high depolarization of membrane potential (approximately -30 mV); relative to control; FIG. 2
Text: (§1) A mouse brain slice was used to study the effects of Menthol, Linalool and Icilin. The amygdaloid complex is located within the medial temporal lobe in neocortex and amygdala. The lateral and basolateral nuclei of the amygdaloid complex receive sensory information from cortical and thalamic structures, process the information, and then transmit the information, either directly or through the basal nucleus, to the central nucleus. For experimental analysis of neural activity, synaptic responses from the basolateral complex can be evoked electrically using electrodes, and the action potentials can be measured.
A square pulse of 2.5 s was applied at high depolarization of membrane potential (approximately −30 mV).

neocortex = assay: action potential measurements in mouse brain slice, neocortex; conditions: for amount of current required to trigger an action potential / threshold to trigger an action potential: neocortex
Text: as §1

[2] = test system: Lateral Amygdala glutamatergic neuron (in a mouse brain slice); assay: whole cell, current clamp recordings of spontaneous bursts with increasing concentration of gabazine
Text: as §1

Row | Compound | inactivation of the sodium fast channels / further neural firing [1] | action potentials at higher stimulation levels (neocortex) | amount of current required to trigger an action potential (neocortex) | threshold to trigger an action potential (neocortex) | spontaneous action potential bursts ([2]; Menthol 250 μM applied extracellularly 10 minutes previous to and during increasing concentrations of gabazine, FIG. 5 compared to FIG. 3) | spontaneous action potential bursts ([2]; increasing concentrations of gabazine alone, applied extracellularly, recordings of 5 minutes each, 10 minute washout, FIG. 3)
1 | O=C1NC(c2cccc([N+](=O)[O-])c2)=CCN1c1ccccc1O [Icilin] | inactivation of the sodium fast channels happens sooner relative to control | abort action potentials at higher stimulation levels | increase the amount of current required to trigger an action potential | increase the threshold to trigger an action potential |  | 
2 | C=CC(C)(O)CCC=C(C)C (centres unmarked) [Linalool] | inactivation of the sodium fast channels happens sooner relative to control | abort action potentials at higher stimulation levels | increase the amount of current required to trigger an action potential | increase the threshold to trigger an action potential |  | 
3 | CC1CCC(C(C)C)C(O)C1 (centres unmarked) [Menthol] | inactivation of the sodium fast channels happens sooner relative to control | abort action potentials at higher stimulation levels | increase the amount of current required to trigger an action potential | increase the threshold to trigger an action potential | complete absence or a strongly decreased presence of spontaneous bursts | 
4 | COc1ccc(-c2ccc(=N)n(CCCC(=O)O)n2)cc1 [gabazine] |  |  |  |  |  | neurons spontaneously present action potential bursts
